Columns and labels:
[1] = tested on: Triglycerides; assay: Fasting lipid panel: triglycerides, CHASE clinical study; type: in vivo, human; conditions: for Triglycerides V2 to V6 % Change Max / Triglycerides V2 to V6 % Change Mean (SD) / Triglycerides V2 to V6 % Change Median / Triglycerides V2 to V6 % Change Min / Triglycerides V2 to V6 Change Max / Triglycerides V2 to V6 Change Mean (SD) / Triglycerides V2 to V6 Change Median / Triglycerides V2 to V6 Change Min: baseline to Week 12
Excerpt: Blood samples shall be obtained under fasted conditions for a lipid panel at V2, V4, V6, V7, and V8. This panel shall include total cholesterol, LDL-C, VLDL-C, HDL-C, and triglycerides. A minimum eight-hour fast (water allowed) is required for the lipid panel.
Fasting lipid profiles and fasting chemistry panels may be obtained within the visit time window on a day separate from the scheduled office visit, within two days before or after the other study procedures. A minimum of eight hours fasted (water allowed ad lib) is required.
(§1) Table 7M provides the changes in lipid levels (mg/dL) (V2 to V6) for subjects.

[2] = tested on: Oxidized LDL; assay: Oxidized LDL, CHASE clinical study; type: in vivo, human; set-up: Oxidized LDL Mean (SD) / Oxidized LDL Median / Oxidized LDL Min / Oxidized LDL Max / Oxidized LDL V2 to V6 Change Median / Oxidized LDL V2 to V6 Change Max: unit not given here; conditions: all subjects; for Oxidized LDL V2 to V6 % Change Max / Oxidized LDL V2 to V6 % Change Mean (SD) / Oxidized LDL V2 to V6 % Change Median / Oxidized LDL V2 to V6 % Change Min / Oxidized LDL V2 to V6 Change Max / Oxidized LDL V2 to V6 Change Mean (SD) / Oxidized LDL V2 to V6 Change Median / Oxidized LDL V2 to V6 Change Min: baseline to Week 12
Excerpt: Samples shall be obtained for TNF-α, IL-1β, IL-6, IFN-γ, and oxLDL at V2, V4, V6, and V8 I.
as §1

[3] = Group X 12 mg BID, V2 baseline pre-dose, all subjects
[4] = Group X 12 mg BID, V2 baseline pre-dose, subjects with hyperlipidemia
[5] = Group X 12 mg BID, V6 Week 12, all subjects
[6] = Group X 12 mg BID, V6 Week 12, subjects with hyperlipidemia
[7] = Group X 12 mg BID, all subjects
[8] = Group X 12 mg BID, subjects with hyperlipidemia
[9] = Group Z 48 mg BID, V2 baseline pre-dose, all subjects
[10] = Group Z 48 mg BID, V2 baseline pre-dose, subjects with hyperlipidemia
[11] = Group Z 48 mg BID, V6 Week 12, all subjects
[12] = Group Z 48 mg BID, V6 Week 12, subjects with hyperlipidemia
[13] = Group Z 48 mg BID, all subjects
[14] = Group Z 48 mg BID, subjects with hyperlipidemia
[15] = Group X 12 mg BID, V2 baseline pre-dose
[16] = Group Z 48 mg BID, V2 baseline pre-dose

## CC1=C(/C=C/C(C)=C/C=C/C(C)=C/C=C/C=C(C)/C=C/C=C(C)/C=C/C2=C(C)C(=O)C(O)CC2(C)C)C(C)(C)CC(O)C1=O (stereo not drawn) [Astaxanthin, astaxanthin]
[1]; [3]
  Triglycerides Max: 482.0 mg/dL
  Triglycerides Mean (SD): 201.9 (122.2) mg/dL
  Triglycerides Median: 177.0 mg/dL
  Triglycerides Min: 59.00 mg/dL
[1]; [4]
  Triglycerides Max: 482.0 mg/dL
  Triglycerides Mean (SD): 235.8 (126.1) mg/dL
  Triglycerides Median: 253.5 mg/dL
  Triglycerides Min: 80.00 mg/dL
[1]; [5]
  Triglycerides Max: 420.0 mg/dL
  Triglycerides Mean (SD): 177.4 (109.8) mg/dL
  Triglycerides Median: 131.0 mg/dL
  Triglycerides Min: 70.00 mg/dL
[1]; [6]
  Triglycerides Max: 420.0 mg/dL
  Triglycerides Mean (SD): 202.3 (120.2) mg/dL
  Triglycerides Median: 211.5 mg/dL
  Triglycerides Min: 70.00 mg/dL
[1]; [7]
  Triglycerides V2 to V6 % Change Max: 42.37%
  Triglycerides V2 to V6 % Change Mean (SD): −7.10 (27.88) %
  Triglycerides V2 to V6 % Change Median: −12.9%
  Triglycerides V2 to V6 % Change Min: −61.5%
  Triglycerides V2 to V6 Change Max: 56.00 mg/dL
  Triglycerides V2 to V6 Change Mean (SD): −24.6 (59.47) mg/dL
  Triglycerides V2 to V6 Change Median: -26.0 mg/dL
  Triglycerides V2 to V6 Change Min: -166 mg/dL
[1]; [8]
  Triglycerides V2 to V6 % Change Max: 22.76%
  Triglycerides V2 to V6 % Change Mean (SD): −12.9 (26.00) %
  Triglycerides V2 to V6 % Change Median: −14.5%
  Triglycerides V2 to V6 % Change Min: −61.5%
  Triglycerides V2 to V6 Change Max: 56.00 mg/dL
  Triglycerides V2 to V6 Change Mean (SD): −33.5 (66.92) mg/dL
  Triglycerides V2 to V6 Change Median: -34.0 mg/dL
  Triglycerides V2 to V6 Change Min: -166 mg/dL
[1]; [9]
  Triglycerides Max: 1677 mg/dL
  Triglycerides Mean (SD): 283.5 (368.2) mg/dL
  Triglycerides Median: 175.0 mg/dL
  Triglycerides Min: 75.00 mg/dL
[1]; [10]
  Triglycerides Max: 1677 mg/dL
  Triglycerides Mean (SD): 321.9 (407.8) mg/dL
  Triglycerides Median: 182.0 mg/dL
  Triglycerides Min: 82.00 mg/dL
[1]; [11]
  Triglycerides Max: 650.0 mg/dL
  Triglycerides Mean (SD): 192.2 (155.1) mg/dL
  Triglycerides Median: 145.5 mg/dL
  Triglycerides Min: 63.00 mg/dL
[1]; [12]
  Triglycerides Max: 650.0 mg/dL
  Triglycerides Mean (SD): 213.1 (170.3) mg/dL
  Triglycerides Median: 149.5 mg/dL
  Triglycerides Min: 76.00 mg/dL
[1]; [13]
  Triglycerides V2 to V6 % Change Max: 115.2%
  Triglycerides V2 to V6 % Change Mean (SD): −0.96 (43.74) %
  Triglycerides V2 to V6 % Change Median: −16.2%
  Triglycerides V2 to V6 % Change Min: −49.5%
  Triglycerides V2 to V6 Change Max: 348.0 mg/dL
  Triglycerides V2 to V6 Change Mean (SD): −9.89 (109.9) mg/dL
  Triglycerides V2 to V6 Change Median: -24.5 mg/dL
  Triglycerides V2 to V6 Change Min: -178 mg/dL
[1]; [14]
  Triglycerides V2 to V6 % Change Max: 115.2%
  Triglycerides V2 to V6 % Change Mean (SD): 0.07 (48.86) %
  Triglycerides V2 to V6 % Change Median: −21.5%
  Triglycerides V2 to V6 % Change Min: −49.5%
  Triglycerides V2 to V6 Change Max: 348.0 mg/dL
  Triglycerides V2 to V6 Change Mean (SD): −12.0 (124.4) mg/dL
  Triglycerides V2 to V6 Change Median: -29.0 mg/dL
  Triglycerides V2 to V6 Change Min: -178 mg/dL
[2]; [15]
  Oxidized LDL Max: 87.00
  Oxidized LDL Mean (SD): 51.64 (18.34)
  Oxidized LDL Median: 49.00
  Oxidized LDL Min: 29.00
[2]; Group X 12 mg BID, V6 Week 12
  Oxidized LDL Max: 85.00
  Oxidized LDL Mean (SD): 51.18 (17.62)
  Oxidized LDL Median: 46.00
  Oxidized LDL Min: 34.00
[2]; Group X 12 mg BID
  Oxidized LDL V2 to V6 % Change Max: 17.24%
  Oxidized LDL V2 to V6 % Change Mean (SD): 0.41 (12.46) %
  Oxidized LDL V2 to V6 % Change Median: 2.86%
  Oxidized LDL V2 to V6 % Change Min: −26.0%
  Oxidized LDL V2 to V6 Change Max: 6.00
  Oxidized LDL V2 to V6 Change Mean (SD): −0.45 (5.65)
  Oxidized LDL V2 to V6 Change Median: 1.00
  Oxidized LDL V2 to V6 Change Min: −13.0
[2]; [16]
  Oxidized LDL Max: 86.00
  Oxidized LDL Mean (SD): 55.00 (17.80)
  Oxidized LDL Median: 59.00
  Oxidized LDL Min: 24.00
[2]; Group Z 48 mg BID, V6 Week 12
  Oxidized LDL Max: 77.00
  Oxidized LDL Mean (SD): 46.22 (15.21)
  Oxidized LDL Median: 48.00
  Oxidized LDL Min: 25.00
[2]; Group Z 48 mg BID
  Oxidized LDL V2 to V6 % Change Max: 24.39%
  Oxidized LDL V2 to V6 % Change Mean (SD): −12.7 (19.64) %
  Oxidized LDL V2 to V6 % Change Median: −10.1%
  Oxidized LDL V2 to V6 % Change Min: −43.8%
  Oxidized LDL V2 to V6 Change Max: 10.00
  Oxidized LDL V2 to V6 Change Mean (SD): −8.22 (12.33)
  Oxidized LDL V2 to V6 Change Median: −4.00
  Oxidized LDL V2 to V6 Change Min: −36.0

From patent US20200085776A1, “Methods of Reducing C-Reactive Protein and/or Treating Cardiovascular Disease” (CARDAX, INC., priority 2018, published 2020)
